How the values were obtained:
[1] = tested on: HeLaCAIX^WT versus HeLaCAIX^KO tumors; assay: NIR imaging of HeLa xenograft tumors in nude mice; format: in vivo; settings: for compound uptake in HeLaCAIX^WT tumors compared to HeLaCAIX^KO tumors: I.V. 2 mg/kg once, imaged every 24 h
Description: The HeLaCAIX^WT and HeLaCAIX^KO cells were injected subcutaneously (S.Q.) into opposite flanks of nude mice, 3 × 10^6 cells per injection. Once tumors reached the palpable size, we performed imaging using the UVITEC AllianceQ9 Imager system. The images were obtained every 24 h after intravenous (I.V.) compound injection into a tail vein. To analyze fluorescent compound uptake, two best candidate compounds were chosen, AZ21-6 and GZ22-4. Compound GZ22-4 was selected because of the photostability and good quantum yield (Table S1), and the fluorescence maximum of AZ21-6 closely resembled the center of the NIR filter of the imaging system. Both compounds had the best solubility properties and good in vitro binding to cells.
Female nude mice (CR ATH HO Code 24106216), 5–6 weeks old, were obtained from Charles River Laboratories. Animals were housed, bred, and handled in the Department of Animal Models Animal Facility at the Life Sciences Center, Vilnius University, Lithuania, with a 12 h light–dark cycle, at 21–23 °C and 40–60% humidity. Animals were fed with an irradiated cholorophyll-deficient diet (Altromin, #C1086194) and water ad libitum. All experimental procedures conformed to Directive 2010/63/EU requirements and were approved by the Lithuanian State Food and Veterinary Service (Approval no G2-194, 2021-11-09).
Before injection into animals, mycoplasma-free cells in the exponential growth phase were harvested, washed, and resuspended in PBS. 8–12 weeks old female nude mice were inoculated S.Q. with 3 × 10^6 HeLaCAIX^WT cells in 100 μL of PBS into the right flank of the mice, and the same number of HeLaCAIX^KO cells were injected into the left flank of the same mouse. Once tumors reached a suitable size for imaging, GZ22-4 or AZ21-6 compounds were injected I.V. at a dose of 2 mg/kg/dose once. Mice were imaged every 24 h postinjection using isoflurane anesthesia with an Alliance^TM bQ9 Imager system. Images were quantified using the UVIBAND MAX analysis software system. […]

[2] = biological target: T1, CAIX expressed in live HeLa cells (Homo sapiens, UniProt Q16790); assay: NIR-fluorescent compound dosing on live HeLa cells (direct binding)
T1 construct: an open reading frame for the full-length CAIX protein (1–459 amino acids) without a tag; expressed in transfected cells; host or cells: HeLa cells transfected with pCMV-CAIX (TurboFect), normoxia
From the text: To measure NIR-fluorescent compound binding to CAIX expressed in cancer cells, the GZ22-4 compound was applied in different concentrations to live HeLa cells grown under hypoxia and normoxia, as described in the Materials and Methods section, and was previously performed for the fluorescein-conjugated CAIX inhibitor GZ19-32.[16] […] The difference was hidden in the low signal-to-noise ratio.
To increase the amount of CAIX expression, the HeLa cells were transfected with the CAIX-encoding plasmid pCMV-CAIX. There was a dramatic increase in CAIX expression observed both in the dosing curve and fluorescence microscopy results. […] In the case of transfection, we can see both the specific CAIX-dependent signal and relatively weak nonspecific binding of the dye to unknown targets at concentrations above approximately 1 μM (shown as a dashed curve, increasing at the same concentrations as the nontransfected cell dosing curve).
Fluorescence values corresponding to the transfection effect were obtained by subtraction of nontransfected values from transfected fluorescence values, showing the resultant data points as open squares. […] However, the determination of the Kd via dosing curves at such high protein concentrations is not accurate and can only serve as an estimate of affinity.
Both assays were performed as previously described.[16] In brief, to measure fluorescent compound binding to CAIX expressed in live cells, HeLa cells were seeded in 12-well plates and either incubated in hypoxia for 3 days or transfected with the CAIX-coding plasmid pCMV-CAIX next day after seeding. The TurboFect transfection reagent (Thermo Fisher) was used for transfection. […] 150 μL of the suspension from each well was transferred to Thermo Scientific Nunc MicroWell 96-Well Optical-Bottom Plates for fluorescence and absorbance measurements. 759 nm excitation and 800 nm emission wavelengths were used to measure fluorescence on a Synergy HTX, BioTek plate reader. 650 nm wavelength was used for absorbance measurements.

SMILES	compound uptake in HeLaCAIX^WT tumors compared to HeLaCAIX^KO tumors [1]	clearance from nontumor locations ([1]; I.V. 2 mg/kg, daily images)	Kd ([2]; HeLa transfected with pCMV-CAIX, normoxia, nontransfected values subtracted, 120 nM CAIX, only an estimate of affinity, read-out: Kd from dosing curve on CAIX-transfected HeLa cells) [nM]	fluorescence signal in hypoxia vs normoxia ([2]; nontransfected live HeLa cells, plate reader)	concentration above which nonspecific binding of the dye to unknown targets is seen ([2]; transfected and nontransfected HeLa cell cultures) [µM]
CC1(C)C(/C=C/C2=C(Oc3ccc(CCC(=O)NCCOCCOCCOCCOCCOCCOCCOCCOCCOCCOCCOCCNC(=O)CCS(=O)(=O)c4c(F)c(F)c(S(N)(=O)=O)c(F)c4NC4CCCCCCC4)cc3)C(=C/C=C3\N(CCCCS(=O)(=O)[O-])c4ccccc4C3(C)C)/CCC2)=[N+](CCCCS(=O)(=O)[O-])c2ccccc21.[Na+] [GZ22-4, Sodium 4-((Z)-2-((E)-2-(2-(4-(43-((2-(Cyclooctylamino)-3,5,6-trifluoro-4-sulfamoylphenyl)sulfonyl)-3,41-dioxo-7,10,13,16,19,22,25,28,31,34,37-undecaoxa-4,40-diazatritetracontyl)phenoxy)-3-((E)-2-(3,3-dimethyl-1-(4-sulfonatobutyl)-3H-indol-1-ium-2-yl)vinyl)cyclohex-2-en-1-ylidene)ethylidene)-3,3-dimethylindolin-1-yl)butane-1-sulfonate]	preferential uptake	faster clearance from nontumor locations	1	no difference in the fluorescence signal in hypoxia vs normoxia	> 1
CC1(C)C(/C=C/C2=C(NCCCOCCOCCOCCCNC(=O)CCC(=O)NCCS(=O)(=O)c3c(F)c(F)c(S(N)(=O)=O)c(F)c3NC3CCCCCCC3)C(=C/C=C3\N(CCCCS(=O)(=O)[O-])c4ccccc4C3(C)C)/CCC2)=[N+](CCCCS(=O)(=O)[O-])c2ccccc21.[Na+] [AZ21-6, Sodium 4-((Z)-2-((E)-2-(2-((1-((2-(Cyclooctylamino)-3,5,6-trifluoro-4-sulfamoylphenyl)sulfonyl)-4,7-dioxo-12,15,18-trioxa-3,8-diazahenicosan-21-yl)amino)-3-((E)-2-(3,3-dimethyl-1-(4-sulfonatobutyl)-3H-indol-1-ium-2-yl)vinyl)cyclohex-2-en-1-ylidene)ethylidene)-3,3-dimethylindolin-1-yl)butane-1-sulfonate]	preferential uptake	–	–	–	–
